Reference: patent US12048761B2, “Methods and pharmaceutical compositions for the treatment of retinal capillary non-perfusion” (INSERM (INSTITUT NATIONAL DE LA SANTÉ ET DE LA RECHERCHE …, priority 2015, dated 2024)
“Also recorded” adds a separate entry of the source.

What was measured:
[1] = system: retinal capillary network; assay: Quantitative assessment of the retinal microangiopathy: lectin-labelled capillary surface on flat-mounted retina; assay type: in vivo, rat; details: GK rats, n=4 Fasudil and n=5 vehicle, p<0.05
Experimental: For intravitreous injections, diabetic rats were anesthetized with an intraperitoneal injection of pentobarbital (40 mg/kg Nembutal, Abbot, Saint-Remy sur Avre, France) and pupils were dilated with a topically applied drop of 5% tropicamide (Ciba Vision, Toulouse, France), and locally anesthetized with a drop of 1% tetracaine (Ciba Vision). Three consecutive injections, of Fasudil at a concentration of 20 µM or vehicle were performed, at 48 hours interval under a surgical microscope, using a 30-gauge needle (Microfine: Becton Dickinson, Meylan, France as described previously). Animals were sacrificed 48 hours following the administration of 3 intra-vitreous injections of 20 μM of Fasudil, each injection was 2 days apart. To quantify the area of large and small blood vessels on flat mounted retina, an ImageJ macro was created in Fiji. Briefly, the local thickness function available with the Fiji plugin for ImageJ software was used to create a map of the blood vessels, from which diameter of the local structures could be evaluated. This map was thresholded to define two binary masks corresponding to the vessels of large diameter (local thickness>threshold) and the vessels of small diameter (local thickness<threshold). The area of those masks was then measured and expressed in terms of the surface area occupied by the small vessels.

ROCK-1 = assay: Western blotting of ROCK1 protein level in RPE; assay type: in vivo, rat; details: GK diabetic rats, 3 intravitreous injections of 20 μM, vs vehicle injected eyes, n=6
Experimental: (§3) For intravitreous injections, diabetic rats were anesthetized with an intraperitoneal injection of pentobarbital (40 mg/kg Nembutal, Abbot, Saint-Remy sur Avre, France) and pupils were dilated with a topically applied drop of 5% tropicamide (Ciba Vision, Toulouse, France), and locally anesthetized with a drop of 1% tetracaine (Ciba Vision). Three consecutive injections, of Fasudil at a concentration of 20 M or vehicle were performed, at 48 hours interval under a surgical microscope, using a 30-gauge needle (Microfine: Becton Dickinson, Meylan, France as described previously [29-31]). Animals were sacrificed 48 hours following the administration of 3 intra-vitreous injections of 20 μM of Fasudil, each injection was 2 days apart.
RPE/choroid and neural retina were homogenized in a lysis buffer (50 mM Mops, 50 mM Trisbase, 0.1%, SDS 1 mM EDTA PH 7.7) containing a protease inhibitor cocktail (Roche, France). Protein concentration was determined using a (Pierce BCA protein assay kit Thermo Scientific Rockford USA) (20-40 μg) were subjected to SDS-PAGE on Nupage 4-12% Bis-Tris gel electrophoresis, and electroblotted onto nitrocellulose membranes (Optitran BA-S 83 GE Healthcare Life Science Whatman). Membranes were incubated with primary antibodies.

p-MLC = assay: Western blotting of p-MLC protein level in RPE; assay type: in vivo, rat; details: GK diabetic rats, 3 intravitreous injections of 20 μM, vs vehicle
Experimental: (§1) For intravitreous injections, diabetic rats were anesthetized with an intraperitoneal injection of pentobarbital (40 mg/kg Nembutal, Abbot, Saint-Remy sur Avre, France) and pupils were dilated with a topically applied drop of 5% tropicamide (Ciba Vision, Toulouse, France), and locally anesthetized with a drop of 1% tetracaine (Ciba Vision). Three consecutive injections, of Fasudil at a concentration of 20 µM or vehicle were performed, at 48 hours interval under a surgical microscope, using a 30-gauge needle (Microfine: Becton Dickinson, Meylan, France as described previously). […] Protein concentration was determined using a (Pierce BCA protein assay kit Thermo Scientific Rockford USA) (20-40 μg) were subjected to SDS-PAGE on Nupage 4-12% Bis-Tris gel electrophoresis, and electroblotted onto nitrocellulose membranes (Optitran BA-S 83 GE Healthcare Life Science Whatman). […] Then, membranes were incubated with the corresponding peroxidase-conjugated F(ab)2 fragment (Santa cruz Biotechnology Inc, Santa Cruz, CA, USA (dilution 1:5000) secondary antibodies. Immunoreactive bands were detected with the ECL Western blotting Detection Reagents Kit (Thermo Scientific Rockford USA). The relative abundance of individual proteins identified was quantified by scanning densitometry. The list of antibodies used for western-blots are provided in Table 2.

ROCK1/P-MLC = assay: Immunolocalization of ROCK1 and P-MLC on RPE cell flatmounts; assay type: in vivo, rat; details: GK diabetic rats, 3 intravitreous injections of 20 μM
Experimental: as §3
For flatmounts, after enucleation, ocular globes were fixed in 4% paraformaldehyde (PFA) for 15 min at room temperature and sectioned at the limbus; anterior segments were discarded. Neural retinas and RPE/choroids were fixed separately for additional 15 min in acetone at −20° C. Specimens were then incubated overnight at 4° C. with primary antibodies diluted in PBS supplemented with 10% foetal calf serum (FCS) and 0.1% Triton X-100. Immunohistochemistry was repeated at least 7 times on 7 different animals for each group.

ROCK [2] = assay: ROCK Activity Immunoblot Kit: phosphorylation of recombinant MYPT1 by RPE/choroid samples of treated GK rats; assay type: in vivo, rat; details: GK diabetic rats, 3 intravitreous injections of 20 μM, vs vehicle
Experimental: We used a ROCK Activity Immunoblot Kit (Cell Biolabs, San Diego, CA, USA) that utilizes recombinant MYPT1 as a ROCK substrate. ROCK inactivates myosin phosphatase through a specific phosphorylation of myosin phosphatase target subunit 1 (MYPT1) at Thr696, which results in an increase in the phosphorylated content of the 20-kDa myosin light chain. (MLC20) After incubating the substrate (recombinant MYPT1) with RPE/choroid samples, the phosphorylated MYPT1 was detected by western blot analysis using an anti-phospho-MYPT1 (Thr696). In brief, RPE/choroid protein samples were diluted in 1× Kinase buffer. 25 μL (75 μg of proteins) was added in microcentrifuge tubes and the initiation of kinase reaction was performed by adding 50 μL of 1× Kinase/ATP/Substrate Solution. The microcentrifuge tubes were then incubated at 30° C. for 30-60 minutes with gentle agitation. Then the kinase reaction was stopped by adding 25 μL of 4× reducing SDS-PAGE sample buffer. […] Inhibition of ROCK activity was evaluated by western blotting and quantified.

retinal vessels = assay: In vivo imaging of retinal vessels using confocal angiography; set-up: species or system rat; details: GK rats, intravitreal fasudil, p<0.05
Experimental: (§2) For intravitreous injections, diabetic rats were anesthetized with an intraperitoneal injection of pentobarbital (40 mg/kg Nembutal, Abbot, Saint-Remy sur Avre, France) and pupils were dilated with a topically applied drop of 5% tropicamide (Ciba Vision, Toulouse, France), and locally anesthetized with a drop of 1% tetracaine (Ciba Vision). Three consecutive injections, of Fasudil at a concentration of 20 µM or vehicle were performed, at 48 hours interval under a surgical microscope, using a 30-gauge needle (Microfine: Becton Dickinson, Meylan, France as described previously). Animals were sacrificed 48 hours following the administration of 3 intra-vitreous injections of 20 μM of Fasudil, each injection was 2 days apart.

RPE cells = assay: Quantitative analysis of RPE cell layer morphology on RPE flat-mounts; assay type: in vivo, rat; details: Fasudil vs vehicle
Experimental: For intravitreous injections, diabetic rats were anesthetized with an intraperitoneal injection of pentobarbital (40 mg/kg Nembutal, Abbot, Saint-Remy sur Avre, France) and pupils were dilated with a topically applied drop of 5% tropicamide (Ciba Vision, Toulouse, France), and locally anesthetized with a drop of 1% tetracaine (Ciba Vision). Three consecutive injections, of Fasudil at a concentration of 20 µM or vehicle were performed, at 48 hours interval under a surgical microscope, using a 30-gauge needle (Microfine: Becton Dickinson, Meylan, France as described previously). Animals were sacrificed 48 hours following the administration of 3 intra-vitreous injections of 20 μM of Fasudil, each injection was 2 days apart. To analyse RPE flat-mounts and in order to assess the cell morphology. an ImageJ [32] macro tool was created in Fiji. Briefly, after a first image processing by FFT band pass filtering, images were converted into binary format and masked and then processed to obtain a skeleton image (isolated segments and loops were removed). This image was inverted and the cells segmented and labelled with the “particle analysis” tool in ImageJ, the Regions of Interest (ROI) were delimited using ROI Manager tool. The number of vertices for each cell was measured following detection of triple points (points were three branches are joined together) with the appropriate binary “hit or miss” transformation. For this transformation, the ImageJ plugin “morphology” was used. By removing those points from the skeleton image, the number of individual edges was counted as well as their length. The number of vertices was then verified and manually corrected for errors. Images with more than 5% automatic alignment errors were eliminated from analysis. Following this several morphological parameters were then measured for each cell e.g. area, perimeter, circularity, number of neighbours/vertices/edges of a cell etc. […]

[3] = system: outer retinal barrier (RPE); assay: Blood-retinal barrier breakdown using intravenous injection of 150 KDa FITC-dextran; assay type: in vivo, rat
Experimental: as §2, with “apart. To assess blood retinal barrier breakdown, 200 μl of 150 KDa FITC-dextran at 50 mg/ml in PBS (Sigma) was injected intravenously in the tail of rats treated by Fasudil or vehicle (n=5), 2 hours prior killing. Leakage of FITC-dextran was evaluated by measuring fluorescence within the retina using imageJ software as previously described by others. Cryosections (10 μm) of Fasudil and vehicles injected rats retina were randomly imaged (10 images at 40× magnification per animal) and analysed.” for “apart.”

VEGF = VEGF western blot in neural retina and VEGF immunostaining on retinal flatmounts; assay type: in vivo, rat; details: GK rats, Fasudil vs vehicle, n=8/group, western blot (VEGF-164, neural retina)
Experimental: as §1

ROCK [4] = details: cited from earlier work

Compound	capillary density (% of surface coverage by small vessels) [1]	total ROCK-1 in the RPE (ROCK-1)	phosphorylated MLC in the RPE (p-MLC)	localization of ROCK1/P-MLC in RPE cells (ROCK1/P-MLC)	phosphorylated MYTP1 in the RPE (ROCK-1 activity) (ROCK [2])	vasodilation of retinal vessels (vascular diameter before and after treatment) (retinal vessels)	frequency of normal size RPE cells (RPE cells; GK retina, p<0.001)	frequency of small RPE cells (<200 μm2) (RPE cells; GK retina, p<0.001)	distribution of RPE cell area (RPE cells; WS (non-diabetic Wistar) retina, ANOVA p=0.17)	RPE barrier on histological sections ([3]; GK eyes, Fasudil treated)	vessel leakage (neural retina corrected total fluorescence) ([3]; GK eyes, Fasudil vs vehicle, n=5-6, p<0.01)	passage of 150 KDa FITC-dextran across the RPE barrier ([3]; GK rats, 2 hours after intravenous FITC-dextran, qualitative on cryosections)	VEGF levels in retina (VEGF)	affinity to ROCK relative to Fasudil (ROCK [4])
O=S(=O)(c1cccc2cnccc12)N1CCCNCC1 [Fasudil, hexahydro-1-(5-isoquinolylsulfonyl)-1H-1,4-di-azepime]	significantly increased	not significantly decreased	significant reduction	relocation of ROCK1/P-MLC from the membrane into the cytoplasm	significant reduction	significant effect of fasudil on retinal vessel diameter; also recorded: significant vasodilation	increase frequency of normal size cells	significantly less small cells; also recorded: reduction in the frequency of small cells	no difference in distribution of cell area	intact RPE barrier	significant reduction in vessel leakage	did not cross the RPE barrier	significant decrease	–
O=c1[nH]ccc2c(S(=O)(=O)N3CCCNCC3)cccc12 [Hydroxyfasudil]	–	–	–	–	–	–	–	–	–	–	–	–	–	higher affinity
